One assay has as its target Bovine Thrombin. The assay is described as follows: Inhibition of thrombin amidase activity (chromogenic substrate), Kass. The format is biochemical. To be noted: equilibrium association constant, mean over a range of concentrations; substrate N-benzoyl-Phe-Val-Arg-p-nitroanilide. As for the experimental part: (§1) The assay is carried out by mixing 50 μL buffer (0.03M Tris, 0.15M NaCl ,pH 7.4) with 25 μL of bovine thrombin or human thrombin solution (0.21 mg/mL of thrombostat bovine thrombin, Parke-Davis, or purified human thrombin, Enzyme Research Laboratories, South Bend, Ind., at about 8 NIH units/mL, in the same buffer) and 25 μL of test compound in a solvent (in 50% aqueous methanol, v:v). The 150 μL of an aqueous solution of the chromogenic substrate (at 0.25 mg/mL) are added and the rates of hydrolysis of the substrate are measured by monitoring the reactions at 405 nm for the release of p-nitroaniline. Standard curves are constructed by plotting free thrombin concentration against hydrolysis rate. The hydrolysis rates observed with test compounds are then converted to "free thrombin" values in the respective assays by use of the standard curves. The bound thrombin (bound to test compound) is calculated by subtracting the amount of free thrombin observed in each assay from the known initial amount of thrombin used in the assay. The amount of free inhibitor in each assay is calculated by subtracting the number of moles of bound thrombin from the number of moles of added inhibitor (test compound). […]
Kass is calculated for a range of concentrations of test compounds and the mean value is reported in units of liter per mole.

In another assay the target is factor Xa. The assay is described as follows: Serine protease selectivity assay (chromogenic substrate), Kass, factor Xa. In kind it is biochemical, human. To be noted: equilibrium association constant; substrate N-Benzoyl-Ile-Glu-Gly-Arg-p-nitroanilide. Here is the method:
[The procedure below names another target; the source says it served here with some conditions changed.] as §1
(§2) Kass is calculated for a range of concentrations of test compounds and the mean value is reported in units of liter per mole. […]

The target of another assay is Trypsin. The experiment in a line: Serine protease selectivity assay (chromogenic substrate), Kass, trypsin. In kind it is biochemical, bovine. Conditions: equilibrium association constant; substrate N-Benzoyl-Phe-Val-Arg-p-nitroanilide. Here is the method:
[The procedure below names another target; the source says it served here with some conditions changed.] as §1, §2

The test system of a further assay is t-PA. The assay is described as follows: Serine protease selectivity assay (chromogenic substrate), Kass, t-PA. The format is biochemical. Conditions: equilibrium association constant; substrate H-D-Ile-Pro-Arg-p-nitroanilide. Here is the method:
[The procedure below names another target; the source says it served here with some conditions changed.] as §1, §2

The target of another assay is Plasmin. The assay is described as follows: Serine protease selectivity assay (chromogenic substrate), Kass, plasmin. The format is biochemical, human. Conditions: equilibrium association constant; substrate H-D-Val-Leu-Lys-p-nitroanilide. As for the experimental part:
[The procedure below names another target; the source says it served here with some conditions changed.] as §1, §2

In the case of `CN[C@H](Cc1ccccc1)C(=O)N1CCC[C@H]1C(=O)N[C@](C)(C=O)CCCNC(=N)N` [Example 1, D-N-methylphenylalanyl-L-prolinyl-L-α-methylarginine aldehyde], the dissociation constant (Kd) is 0.909 µM at Bovine Thrombin, 3330 µM on factor Xa, 250 µM on Trypsin and 2000 µM at Plasmin. In addition, the “Kass t-PA” value with t-PA is 0 × 10^6 (L/mole).

On to `C[C@@](C=O)(CCCNC(=N)N)NC(=O)[C@@H]1CCCN1C(=O)[C@@H]1NCCc2ccccc21` [Example 2, D-1-(1,2,3,4-tetrahydroisoquinolinylcarboxyl)-L-prolinyl-L -α-methylarginine aldehyde], for which the Kd was 4.55 µM at Bovine Thrombin, 1000 µM at factor Xa, 71.4 µM on Trypsin and 1250 µM on Plasmin. In addition, in the assay with t-PA, the “Kass t-PA” value is 0 × 10^6 (L/mole).

As usually defined, the Kd is a measure of binding affinity in units of concentration. Lower therefore signals a tighter complex.

The record behind these values is patent US5439888A, “Antithrombotic agents” (Eli Lilly and Company, priority 1994, dated 1995).
